We go through seven compounds from patent US6586478B2, “Methods and compositions for improving sleep” (Cellegy Canada, priority 2000, dated 2003).

Series [1] concerns sleep disorders including PLMS. Put plainly: Example 1, Subject 1: person with sleep disorders including PLMS. The class given is in vivo, human. To be noted: Subject 1, history before the GTN patch. The protocol: The subject was a person with a history of sleep disorders including PLMS for at least 4 years. Over this period the subject had five visits to a sleep laboratory, which confirmed their diagnosis of PLMS, and through which various treatments were devised. These included drug therapies with PAXIL/WELLBUTRIN, CLOMIPRAMINE, IMOVANE, DESIPPAMINE, ZOLOFT, TEMAZEPAM, TRYPTAN, and FLUVOXAMINE.
At this point, the subject was administered a 1.65 cm^2 GTN patch as described above in reference to Table 4. The patch was applied just before retiring at night. This was repeated for three consecutive nights. […] On the fourth night, the subject applied a 1.1 cm^2 GTN patch, and on the fifth night, a 0.825 cm^2 GTN patch.

Series [2] in a line: Plasma levels of nitroglycerin delivered from transdermal patches. The class given is in vivo. The protocol: (§1) 3M MINITRAN transdermal nitroglycerin patches of 10 cm^2 and 20 cm^2 areas deliver plasma levels of 102 pg/mL and between 129 pg/mL and 310 pg/mL, respectively. The 3.3 cm^2 patch, with a total loading of 9 mg of nitroglycerin in each patch, has a mean rate of drug delivery of about […]. The two smaller patches (1.65 cm^2 and 0.825 cm^2) used in the studies described herein had areas of one half and one fourth the 3.33 cm^2 patch. Based on the ratios of patch surface area and assuming linearity in the rates of drug delivery, the estimated rates of delivery and extrapolated values of plasma levels of nitroglycerin for the three low or microdose patches are given in Table 1.

Series [3] is described as follows: Rate of drug delivery (release) from transdermal nitroglycerin patches. The following applies: after 8 hours, 0.83 cm^2 patch. The protocol:
as §1
Nitroglycerin for the treatment of RLS, PLMS and sleep symptoms was provided in single dose transdermal patches packaged in individual foil pouches. Each single dose transdermal patch has a surface area of 0.83 cm^2, contains 2.25 mg of nitroglycerin, and releases the nitroglycerin at a rate of 0.025 mg/hour (0.75 mg/cm^2/24 hours). After 8 hours 85% of the nitroglycerin remains entrained in the adhesive substrate of the transdermal patch.

On to `CN(C)CCCN1c2ccccc2CCc2ccc(Cl)cc21` [CLOMIPRAMINE], for which the “success of earlier drug therapies in treating the symptoms of the sleep disorder” value (from here on “success of earlier drug therapies”) in series [1] was “None of the drug therapies were successful”. As for `CNCCCN1c2ccccc2CCc2ccccc21` [DESIPPAMINE], the “success of earlier drug therapies” value in series [1] is reported as “None of the drug therapies were successful”. With `COCCCC/C(=N\OCCN)c1ccc(C(F)(F)F)cc1` [FLUVOXAMINE], the “success of earlier drug therapies” value in series [1] is given as “None of the drug therapies were successful”. On the same count and under the same terms, the same measure for `CN1CCN(C(=O)OC2c3nccnc3C(=O)N2c2ccc(Cl)cn2)CC1` (centres unmarked) [IMOVANE]: “None of the drug therapies were successful”. As for `O=[N+]([O-])OCC(CO[N+](=O)[O-])O[N+](=O)[O-]` [Nitroglycerin, nitroglycerin], the “Plasma Level” value in series [2] (0.825 cm^2 patch, extrapolated from larger-size patches assuming linearity) was 9^3 pg/mL; in series [2] (1.65 cm^2 patch, extrapolated from larger-size patches assuming linearity) it was 17^3 pg/mL; in series [2] (3.33 cm^2 patch, extrapolated from larger-size patches assuming linearity), 34^3 pg/mL; in series [2] (10 cm^2 patch), 102^1 pg/mL. The “nitroglycerin remaining entrained in the adhesive substrate of the patch” value in series [3] is 85%. In the case of `CN1C(=O)C(O)N=C(c2ccccc2)c2cc(Cl)ccc21` (centres unmarked) [TEMAZEPAM, temazepam], the “success of earlier drug therapies” value in series [1] was “None of the drug therapies were successful”. The same measure, in the same setting: the same measure for `CN[C@H]1CC[C@@H](c2ccc(Cl)c(Cl)c2)c2ccccc21` [ZOLOFT]: “None of the drug therapies were successful”.
